Assay results reported in US8557805B2, “Fused ring compound and use thereof” (Takeda Pharmaceutical Company Limited, priority 2008, dated 2013).

Experiments:
[1] = target: T1, human liver GK (GST-hLGK1) (Homo sapiens, UniProt P35557); assay: Determination of GK activity value (Mant-ATP to Mant-ADP conversion, capillary electrophoresis); format: biochemical; conditions: reaction started with 25 mM D-glucose solution, 37° C., 60 min, concentration at midpoint between maximum activity value and control group activity value
T1 construct: with a BamHI site added to immediately before the initiation codon; made in house; host or cells: Escherichia coli BL21 (Stratagene), plasmid pGEX6P-2/hLGK1
T1 sequence (P35557 1-464 isoform P35557-3): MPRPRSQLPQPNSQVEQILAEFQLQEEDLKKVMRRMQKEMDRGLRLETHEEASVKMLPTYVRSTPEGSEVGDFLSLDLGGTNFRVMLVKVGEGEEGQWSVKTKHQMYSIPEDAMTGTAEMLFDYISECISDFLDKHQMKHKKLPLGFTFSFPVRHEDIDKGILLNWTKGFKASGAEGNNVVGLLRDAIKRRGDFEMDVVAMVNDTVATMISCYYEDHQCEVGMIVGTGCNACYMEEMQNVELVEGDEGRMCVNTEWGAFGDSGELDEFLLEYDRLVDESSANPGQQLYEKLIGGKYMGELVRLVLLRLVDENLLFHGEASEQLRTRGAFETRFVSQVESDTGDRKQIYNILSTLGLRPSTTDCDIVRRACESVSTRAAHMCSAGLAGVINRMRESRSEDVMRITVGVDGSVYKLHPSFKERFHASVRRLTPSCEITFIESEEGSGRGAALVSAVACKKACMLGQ
Procedure: Plasmid DNA to be used for the expression of a protein (GST-hLGK1) containing GST (Glutathione S-transferase) added to the amino terminal of human liver GK in Escherichia coli was prepared as follows.
First, PCR was performed using human liver cDNA (Marathon Ready cDNA, Clontech Laboratories, Inc.) as a template and two kinds of synthetic DNAs (5′-[…]-3′ (SEQ ID NO: 1) and 5′-[…]-3′ (SEQ ID NO: 2)), and the obtained DNA fragment was closed using a TOPO TA Cloning Kit (Invitrogen Corporation). PCR was performed using the obtained plasmid DNA as a template and a synthetic DNA (5′-[…] CAGAG-3′ (SEQ ID NO: 3)) with a BamHI site added to immediately before the initiation codon, and a synthetic DNA (5′-[…]-3′ (SEQ ID NO: 4)) with an EcoRI site added to immediately after the stop codon. The obtained DNA fragment was subcloned to pGEX6P-2 (Amersham Biosciences K.K.) cleaved with BamHI and EcoRI to give a plasmid (pGEX6P-2/hLGK1) for expression of human liver GK.
BL21 strain (Stratagene) transformed with pGEX6P-2/hLGK1 obtained in (1) was cultured with shaking at 37° C. for 14 hr in a 200 ml Erlenmeyer flask containing 50 ml of 100 μg/ml ampicillin-containing LB medium. The culture medium (25 ml) was diluted with 225 ml of 100 μg/ml ampicillin-containing LB medium, and further cultured with shaking at 37° C. for 1 hr in a 1 L Erlenmeyer flask. After culture, the Erlenmeyer flask was cooled on ice, 125 μL of 100 mM isopropyl-thio-β-D-galactopyranoside (IPTG) was added (final concentration 50 μM), and cultured at 17° C. for 20 hr. The culture medium was centrifuged, and the obtained fungus was disrupted by ultrasonication. The object protein (GST-hLGK1) was purified from the supernatant using Glutathione Sepharose 4B (Amersham Biosciences K.K.).
A solution (5 μL) of test compound in 50% dimethyl sulfoxide was added to each well of 384 well black plate (Nalge Nunc International K.K.). Then, a solution (35 μL) obtained by diluting GST-hLGK1 obtained in (2) with measurement buffer (containing 50 mM HEPES (pH 7.4), 200 mM KCl, 5 mM MgCl2, 2.5 mM DTT and 50 μM 2′-(or-3′)-O—(N-methylanthraniloyl)adenosine 5′-triphosphate (Mant-ATP) (Jena Bioscience GmbH)) to 6 μg/mL was added to each well.
Each well was stood at 37° C. for 10 min, and 25 mM D-glucose solution (10 μL) was added to start the reaction.
Each well after the reaction was stood at 37° C. for 60 min, and the reaction was quenched by adding 25 μL of a quenching solution (containing 200 mM HEPES (pH 7.4), 20 mM MgCl2, 200 mM EDTA, 0.03% Triton-X 100, 0.3% Coating 3 reagent (Caliper Life Sciences, Inc.)).
2′-(or -3′)-O—(N-methylanthraniloyl)adenosine 5′-triphosphate (Mant-ATP, substrate) and Mant-ADP (reaction resultant product) were separated from each well after the reaction by a microchip type capillary electrophoresis apparatus 250 HTS (Caliper Life Sciences, Inc.). The reaction rate [(reaction resultant product peak height)/(reaction resultant product peak height+substrate peak height)×100(%)] was calculated from the ratio of the substrate peak height and reaction resultant product peak height obtained by fluorescence detection (excitation wavelength 355 nm, measurement wavelength 460 nm) and used as the index of GK activity.
3.5 As a control group, the reaction rate was calculated in the same manner as above except that “solution in 50% dimethyl sulfoxide (without test compound)” was used instead of “solution of test compound in 50% dimethyl sulfoxide”.
A concentration dependency curve of the test compound was drawn with the percentage obtained by dividing the reaction rate of the well added with the test compound (test compound addition group) by the reaction rate of the control group was taken as the GK activity value of the test compound, and the concentration of the test compound at the midpoint between the maximum activity value of the test compound addition group and the control group activity value is shown as EC50 value.

Row | melting point [°C] | EC50 [1] [nM] | SMILES
1 | 170 to 172 | 90 | CNC(=O)CC1CN=C(c2cc3cc(Oc4ccc(S(C)(=O)=O)cn4)cc(OC4CCOCC4)c3[nH]2)S1 (stereo not shown) [Example 17, N-Methyl-2-{2-[5-{[5-(methylsulfonyl)pyridin-2-yl]oxy}-7-(tetrahydro-2H-pyran-4-yloxy)-1H-indol-2-yl]-4,5-dihydro-1,3-thiazol-5-yl}acetamide]
2 | 175 to 176 | 16 | CS(=O)(=O)c1ccc(Oc2cc(OC3CCOCC3)c3[nH]c(C4=NCC(CC(=O)NC5CC5)S4)cc3c2)cn1 (stereo not shown) [Example 37, N-Cyclopropyl-2-{2-[5-{[6-(methylsulfonyl)pyridin-3-yl]oxy}-7-(tetrahydro-2H-pyran-4-yloxy)-1H-indol-2-yl]-4,5-dihydro-1,3-thiazol-5-yl}acetamide]
3 | 197 to 198 | 21 | CCNC(=O)CC1CN=C(c2cc3cc(Oc4ccc(S(C)(=O)=O)nc4)cc(OC4CCOCC4)c3[nH]2)S1 (stereo not shown) [Example 42, N-Ethyl-2-{2-[5-{[6-(methylsulfonyl)pyridin-3-yl]oxy}-7-(tetrahydro-2H-pyran-4-yloxy)-1H-indol-2-yl]-4,5-dihydro-1,3-thiazol-5-yl}acetamide]
4 | 150 to 152 | 130 | CNC(=O)CC1CN=C(c2cc3cc(Oc4ccc(S(C)(=O)=O)nc4)ccc3[nH]2)S1 (stereo not shown) [Example 53, N-Methyl-2-[2-(5-{[6-(methylsulfonyl)pyridin-3-yl]oxy}-1H-indol-2-yl)-4,5-dihydro-1,3-thiazol-5-yl]acetamide]
5 | 216 to 217 | 120 | CCNC(=O)CC1CN=C(c2cc3cc(Oc4ccc(S(C)(=O)=O)nc4)ccc3[nH]2)S1 (stereo not shown) [Example 54, N-Ethyl-2-[2-(5-{[6-(methylsulfonyl)pyridin-3-yl]oxy}-1H-indol-2-yl)-4,5-dihydro-1,3-thiazol-5-yl]acetamide]
6 | 162 to 164 | 180 | CN(C)C(=O)CC1CN=C(c2cc3cc(Oc4ccc(S(C)(=O)=O)nc4)ccc3[nH]2)S1 (stereo not shown) [Example 55, N,N-Dimethyl-2-[2-(5-{[6-(methylsulfonyl)pyridin-3-yl]oxy}-1H-indol-2-yl)-4,5-dihydro-1,3-thiazol-5-yl]acetamide]
7 | 234 to 235 | 73 | CS(=O)(=O)c1ccc(Oc2ccc3[nH]c(C4=NCC(CC(=O)NCC(F)(F)F)S4)cc3c2)cn1 (stereo not shown) [Example 56, 2-[2-(5-{[6-(Methylsulfonyl)pyridin-3-yl]oxy}-1H-indol-2-yl)-4,5-dihydro-1,3-thiazol-5-yl]-N-(2,2,2-trifluoroethyl)acetamide]
8 | 155 to 156 | 160 | COCCNC(=O)CC1CN=C(c2cc3cc(Oc4ccc(S(C)(=O)=O)nc4)ccc3[nH]2)S1 (stereo not shown) [Example 57, N-(2-Methoxyethyl)-2-[2-(5-{[6-(methylsulfonyl)pyridin-3-yl]oxy}-1H-indol-2-yl)-4,5-dihydro-1,3-thiazol-5-yl]acetamide]
9 | 190 to 191 | 120 | CS(=O)(=O)c1ccc(Oc2ccc3[nH]c(C4=NCC(CC(=O)N5CCOCC5)S4)cc3c2)cn1 (stereo not shown) [Example 58, 5-{[6-(Methylsulfonyl)pyridin-3-yl]oxy}-2-[5-(2-morpholin-4-yl-2-oxoethyl)-4,5-dihydro-1,3-thiazol-2-yl]-1H-indole]
10 | 190 to 191 | 16 | CCc1cc(Oc2ccc(S(C)(=O)=O)nc2)cc2cc(C3=NCC(CC(N)=O)S3)[nH]c12 (stereo not shown) [Example 61, 2-[2-(7-Ethyl-5-{[6-(methylsulfonyl)pyridin-3-yl]oxy}-1H-indol-2-yl)-4,5-dihydro-1,3-thiazol-5-yl]acetamide]
11 | 202 to 203 | 29 | Cc1cc(Oc2ccc(S(C)(=O)=O)nc2)cc2cc(C3=NCC(CC(N)=O)S3)[nH]c12 (stereo not shown) [Example 72, 2-[2-(7-Methyl-5-{[6-(methylsulfonyl)pyridin-3-yl]oxy}-1H-indol-2-yl)-4,5-dihydro-1,3-thiazol-5-yl]acetamide]
